Laboratory results: ChEMBL document CHEMBL4184182, “Studies on interactions of carbazole derivatives with DNA, cell image, and cytotoxicity” (Bioorg Med Chem, 2018)
One block for each compound: values may come before it. Calls of active or inactive are those of the source. No cut-off for these calls is given here.

Experiments:
Quadruplex DNA [1] = assay: Binding affinity to human telomeric G-quadruplex DNA assessed as enhanced fluorescence ratio at 5 uM after 5 mins in presence of potassium ion by fluorescence titration assay relative to control; type: nucleic-acid assay
Quadruplex DNA [2] = assay: Binding affinity to human telomeric G-quadruplex DNA assessed as hyperchromicity at 15 uM after 5 mins in presence of sodium ion by UV-Visible absorbance titration method; type: nucleic-acid assay
[3] = Drug uptake in human HepG2 cell nucleus at 10 uM after 2.5 hrs by confocal microscopic method; type: ADME, subcellular; settings: hepg2, 2.5 h
Quadruplex DNA [4] = assay: Binding affinity to human telomeric G-quadruplex DNA assessed as absorption maximum at 5 uM after 5 mins in presence of potassium ion by fluorescence titration method (reference value: 405 nanometer); type: nucleic-acid assay
Quadruplex DNA [5] = assay: Binding affinity to human telomeric G-quadruplex DNA assessed as emission maximum at 5 uM after 5 mins in presence of potassium ion by fluorescence titration method (reference value: 559 nanometer); type: nucleic-acid assay
HepG2 [6] = assay: Induction of morphological changes in human HepG2 cells assessed as debris formation at 10 uM after 24 hrs; type: functional, cell-based
Quadruplex DNA [7] = assay: Binding affinity to c-Kit G-quadruplex DNA (unknown origin) assessed as hyperchromicity at 15 uM after 5 mins by UV-Visible absorbance titration method; type: nucleic-acid assay
dsDNA [8] = assay: Binding affinity to 26-mer duplex DNA (unknown origin) assessed as red shift at 15 uM after 5 mins by UV-Visible absorbance titration method; type: nucleic-acid assay
Quadruplex DNA [9] = assay: Binding affinity to c-Kit G-quadruplex DNA (unknown origin) assessed as emission maximum at 5 uM after 5 mins by fluorescence titration method (reference value: 559 nanometer); type: nucleic-acid assay
Quadruplex DNA [10] = assay: Binding affinity to c-Myc G-quadruplex DNA (unknown origin) assessed as absorption maximum at 5 uM after 5 mins by fluorescence titration method (reference value: 405 nanometer); type: nucleic-acid assay
Quadruplex DNA [11] = assay: Binding affinity to Bcl2 G-quadruplex DNA (unknown origin) assessed as enhanced fluorescence ratio at 5 uM after 5 mins by fluorescence titration assay relative to control; type: nucleic-acid assay
Quadruplex DNA [12] = assay: Binding affinity to human telomeric G-quadruplex DNA assessed as enhanced fluorescence time at 5 uM after 5 mins in presence of sodium ion by fluorescence titration assay relative to control; type: nucleic-acid assay
Quadruplex DNA [13] = assay: Binding affinity to c-Kit G-quadruplex DNA (unknown origin) assessed as red shift at 15 uM after 5 mins by UV-Visible absorbance titration method; type: nucleic-acid assay
Quadruplex DNA [14] = assay: Binding affinity to human telomeric G-quadruplex DNA assessed as compound fluorescence life time at 5 uM after 5 mins in presence of sodium ion by fluorescence titration method (reference value: 3.626 nanoseconds); type: nucleic-acid assay
[15] = Drug uptake in fixed human HepG2 cell nucleus at 10 uM after 2.5 hrs by confocal microscopic method; type: ADME, subcellular; settings: hepg2, 2.5 h
Quadruplex DNA [16] = assay: Binding affinity to c-Myc G-quadruplex DNA (unknown origin) assessed as enhanced fluorescence time at 5 uM after 5 mins by fluorescence titration assay relative to control; type: nucleic-acid assay
dsDNA [17] = assay: Binding affinity to 26-mer duplex DNA (unknown origin) assessed as emission maximum at 5 uM after 5 mins by fluorescence titration method (reference value: 559 nanometer); type: nucleic-acid assay
[18] = Drug uptake in RNase-A treated human HepG2 cell nucleus at 10 uM after 2.5 hrs by confocal microscopic method; type: ADME, subcellular; settings: hepg2, 2.5 h
Calf thymus DNA [19] = assay: Binding affinity to calf thymus DNA assessed as absorption maximum at 5 uM after 5 mins by fluorescence titration method (reference value: 405 nanometer); type: nucleic-acid assay; settings: Bos taurus
Quadruplex DNA [20] = assay: Binding affinity to human telomeric G-quadruplex DNA assessed as red shift at 15 uM after 5 mins in presence of sodium ion by UV-Visible absorbance titration method; type: nucleic-acid assay
Quadruplex DNA [21] = assay: Binding affinity to c-Kit G-quadruplex DNA (unknown origin) assessed as emission maximum at 5 uM after 5 mins by fluorescence titration method (reference value: 584 nanometer); type: nucleic-acid assay
dsDNA [22] = assay: Binding affinity to 26-mer duplex DNA (unknown origin) assessed as absorption maximum at 5 uM after 5 mins by fluorescence titration method (reference value: 453 nanometer); type: nucleic-acid assay
Quadruplex DNA [23] = assay: Binding affinity to human telomeric G-quadruplex DNA assessed as hyperchromicity at 10 uM after 5 mins in presence of sodium ion by UV-Visible absorbance titration method; type: nucleic-acid assay
Quadruplex DNA [24] = assay: Binding affinity to human telomeric G-quadruplex DNA assessed as compound fluorescence life time at 5 uM after 5 mins in presence of sodium ion by fluorescence titration method (reference value: 0.192 nanoseconds); type: nucleic-acid assay
[25] = Drug uptake in DNase-1 treated human HepG2 cell nucleus at 3 uM after 30 mins by H33258.staining based confocal microscopic method; type: ADME, subcellular; settings: hepg2, 0.5 h
Calf thymus DNA [26] = assay: Binding affinity to calf thymus DNA assessed as absorption maximum at 5 uM after 5 mins by fluorescence titration method (reference value: 453 nanometer); type: nucleic-acid assay; settings: Bos taurus
Quadruplex DNA [27] = assay: Binding affinity to c-Myc G-quadruplex DNA (unknown origin) assessed as compound fluorescence life time at 5 uM after 5 mins by fluorescence titration method (reference value: 0.192 nanoseconds); type: nucleic-acid assay
Quadruplex DNA [28] = assay: Binding affinity to human telomeric G-quadruplex DNA assessed as red shift at 10 uM after 5 mins in presence of potassium ion by UV-Visible absorbance titration method; type: nucleic-acid assay
Quadruplex DNA [29] = assay: Binding affinity to human telomeric G-quadruplex DNA assessed as hyperchromicity at 10 uM after 5 mins in presence of potassium ion by UV-Visible absorbance titration method; type: nucleic-acid assay
Quadruplex DNA [30] = assay: Binding affinity to Bcl2 G-quadruplex DNA (unknown origin) assessed as emission maximum at 5 uM after 5 mins by fluorescence titration method (reference value: 584 nanometer); type: nucleic-acid assay
[31] = Drug uptake in human HepG2 cell nucleus at 3 uM after 30 mins by H33258.staining based confocal microscopic method; type: ADME, subcellular; settings: hepg2, 0.5 h
HepG2 [32] = assay: Induction of morphological changes in human HepG2 cells assessed as cellular clumping at 5 uM after 24 hrs; type: functional, cell-based
Quadruplex DNA [33] = assay: Binding affinity to human telomeric G-quadruplex DNA assessed as emission maximum at 5 uM after 5 mins in presence of potassium ion by fluorescence titration method (reference value: 584 nanometer); type: nucleic-acid assay
Quadruplex DNA [34] = assay: Binding affinity to c-Myc G-quadruplex DNA (unknown origin) assessed as red shift at 10 uM after 5 mins by UV-Visible absorbance titration method; type: nucleic-acid assay
Quadruplex DNA [35] = assay: Binding affinity to c-Kit G-quadruplex DNA (unknown origin) assessed as absorption maximum at 5 uM after 5 mins by fluorescence titration method (reference value: 453 nanometer); type: nucleic-acid assay
dsDNA [36] = assay: Binding affinity to 26-mer duplex DNA (unknown origin) assessed as hyperchromicity at 10 uM after 5 mins by UV-Visible absorbance titration method; type: nucleic-acid assay
Quadruplex DNA [37] = assay: Binding affinity to c-Kit G-quadruplex DNA (unknown origin) assessed as compound fluorescence life time at 5 uM after 5 mins by fluorescence titration method (reference value: 0.192 nanoseconds); type: nucleic-acid assay
Quadruplex DNA [38] = assay: Binding affinity to c-Myc G-quadruplex DNA (unknown origin) assessed as emission maximum at 5 uM after 5 mins by fluorescence titration method (reference value: 584 nanometer); type: nucleic-acid assay
Quadruplex DNA [39] = assay: Binding affinity to Bcl2 G-quadruplex DNA (unknown origin) assessed as absorption maximum at 5 uM after 5 mins by fluorescence titration method (reference value: 453 nanometer); type: nucleic-acid assay

Ratio (Quadruplex DNA [1]): > 6 | Activity (Quadruplex DNA [2]): 37.9% | Drug uptake [3]: Not Active | Activity (Quadruplex DNA [4]): 428 nm | Activity (Quadruplex DNA [5]): 545 nm | Activity (Quadruplex DNA [7]): 39.9% | Activity (dsDNA [8]): 17 nm | Activity (Quadruplex DNA [9]): 550 nm | Activity (Quadruplex DNA [10]): 430 nm | Ratio (Quadruplex DNA [11]): > 6 | fold change (FC) (Quadruplex DNA [12]): 11.2 to 20.6 | Activity (Quadruplex DNA [13]): 27 nm | Time (Quadruplex DNA [14]): 7.25 nanoseconds | Drug uptake [15]: Active | fold change (FC) (Quadruplex DNA [16]): 11.2 to 20.6 | Activity (dsDNA [17]): 541 nm | Drug uptake [18]: Active | Activity (Calf thymus DNA [19]): 428 nm | Activity (Quadruplex DNA [20]): 17 nm
Compound: CCn1c2ccccc2c2cc(/C=C(\C#N)c3ccc[n+](C)c3)ccc21.[I-]
Activity (HepG2 [6]): Active

Activity (Quadruplex DNA [21]): 588 nm | Activity (dsDNA [22]): 470 nm | Activity (Quadruplex DNA [23]): 48.4% | Time (Quadruplex DNA [24]): 2.15 nanoseconds | Drug uptake [25]: Not Active | Activity (Calf thymus DNA [26]): 477 nm | Time (Quadruplex DNA [27]): 1.68 nanoseconds | Activity (Quadruplex DNA [28]): 21 nm | Activity (Quadruplex DNA [29]): 41.1% | Activity (Quadruplex DNA [30]): 586 nm | Drug uptake [31]: Active | Activity (Quadruplex DNA [33]): 579 nm | Activity (Quadruplex DNA [34]): 53 nm | Activity (Quadruplex DNA [35]): 493 nm | Activity (dsDNA [36]): 24.6% | Time (Quadruplex DNA [37]): 1.51 nanoseconds | Activity (Quadruplex DNA [38]): 581 nm | Activity (Quadruplex DNA [39]): 500 nm
Compound: CCn1c2ccccc2c2cc(/C=C/c3sc4ccccc4[n+]3CC)ccc21.[I-]
Activity (HepG2 [32]): Active
